Measured values as given in paper PMC7520468, “Salvia ceratophylla L. from South of Jordan: new insights on chemical composition and biological activities” (Natural Products and Bioprospecting, 2020).
Values after ≈ are worked out from the molar mass of the structure shown. One block for each compound: values may come before it.

Tests used:
[1] = tested on: T. brucei brucei blood stream forms; set-up: method as in PMID 16557466; details: cited from earlier work
[2] = tested on: L. donovani promastigotes; assay: Leishmania donovani promastigote assay (Alamar Blue); type: cell-based; details: 72 h, 26 °C, tested concentrations (µg/mL) 20–0.8 extracts, 10–0.4 pure compounds and pentamidine, 2.0–0.08 amphotericin B, NA = not active
Protocol: (§1) EO and extracts (A-D) at a stock concentration of 20 mg/mL were dilute to 4 mg/mL with DMSO. The obtained solutions (4 mg/mL) were four-fold diluted with incomplete RPMI medium to 1 mg/mL. Pure compounds at a stock concentration of 2 mg/mL in DMSO were diluted four-fold with incomplete RPMI medium to 0.5 mg/mL.
(§2) The extracts and pure compounds (highest concentrations 20 µg/mL for extracts and 10 µg/mL for pure compounds) were subject to different tests, namely Leishmania donovani promastigote assay, L. donovani axenic amastigote assay, L. donovani THP1 macrophage amastigote assay, Trypanosoma brucei trypamastigotes assay and THP1 toxicity assay. Alamar Blue assay was perform as previously described by other authors.
(§3) These assays have been adapted to 384-well micro-plate format. A 3–4 days old culture of Leishmania donovani promastigotes harvested in the exponential growth phase was diluted with RPMI medium to 1 × 10^6 cells/mL for promastigote assays. A 3–4 days old culture of Leishmania donovani axenic amastigotes was diluted with RPMI medium to 2 × 10^6 cells/mL for axenic amastigote assays. A 2 days old culture of Trypanosoma brucei harvested in the exponential phase was diluted with Iscove's Modified Dulbecco's Medium (IMDM) to 5 × 10^3 cells/mL for the antitrypanosomal assay.
(§4) Samples were added to the L. donovani promastigotes, L. donovani axenic amastigotes or T. brucei trypamastigotes cultures. The extracts were initially test at single concentrations of […] for primary screening. The active extracts and pure compounds were test at three or six concentrations ranging from 10 to 0.0032 µg/mL. The plates were incubated at 26 °C for 72 h (37 °C for axenic amastigotes and T. brucei trypamastigotes) and growth of cultured parasites was determined by the Alamar Blue assay [32 33].

[3] = tested on: L. donovani axenic amastigotes; assay: L. donovani axenic amastigote assay (Alamar Blue); type: cell-based; details: Leishmania donovani; first Amastigote column; 72 h, 37 °C; tested concentrations (µg/mL) 20–0.8 extracts, 10–0.4 pure compounds and pentamidine, 2.0–0.08 amphotericin B; NA = not active
Protocol: as §1, §2
These assays have been adapted to 384-well micro-plate format. A 3–4 days old culture of Leishmania donovani promastigotes harvested in the exponential growth phase was diluted with RPMI medium to 1 × 10^6 cells/mL for promastigote assays. […]
Samples were added to the L. donovani promastigotes, L. donovani axenic amastigotes or T. brucei trypamastigotes cultures. […] The plates were incubated at 26 °C for 72 h (37 °C for axenic amastigotes and T. brucei trypamastigotes) and growth of cultured parasites was determined by the Alamar Blue assay [32 33].

[4] = tested on: human HepG2 hepatoma cells; assay: Inhibition of cellular oxidative stress assay (ABAP, DCFH-DA); type: cell-based
Protocol: The cellular antioxidant activity of S. ceratophylla EO and other extracts was measured in human HepG2 hepatoma cells This assay determines the ability of test samples to prevent intracellular generation of peroxyl radicals in response to 2,2- azobis (2-amidinopropane) dihydrochloride (ABAP, Sigma-Aldrich, St Louis, MO, USA).
HepG2 cells were culture in Dulbecco's Modified Eagle Medium (DMEM) supplemented with 10% fetal bovine serum (FBS), 50 units/mL penicillin and 50 µg/mL streptomycin. Cells were seed in 96-well plates (60,000 cells/well) and incubated for 24 h. The tested samples were diluted in serum free medium containing 25 µM 2^′,7′, dichoroflouresceine diacetate (DCFH-DA, Invitrogen, Carlsbad, CA, USA). The cells were wash with PBS and treated with test samples during 1 h. The medium containing tested samples was removed, ABAP (600 µM) was added and the plate was immediately placed on a Spectra Max plate reader for kinetic reading every 5 min during 1 h (37 °C, emission at 538 nm and excitation at 485 nm). Quercetin (Sigma-Aldrich) was use as positive control. To calculate the percentage of decrease in oxidative stress, the Area Under the Curve (AUC) of fluorescence versus time was used. Decrease in oxidative stress%=AUC control^100-[AUC tested sample×100]

NF-κB = assay: Inhibition of NF-κB activity, luciferase reporter in SW 1353 cells; type: cell-based; details: Homo sapiens, SW1353; SW 1353, PMA 70 ng/mL, 8 h; NA = not active at tested concentration
Protocol: The inhibition activity of tested samples against NF-κB was evaluate as described. The SW 1353 human chondrosarcoma cell line was culture in a mixture of Dulbecco's Modified Eagle's Medium (DMEM) and Ham's F-12 Nutrient (DMEM/F12) supplemented with 10% FBS, 100 U/Ml penicillin and 100 µg/mL streptomycin. Cultured cells were washed in antibiotic and FBS-free DMEM/F12 medium and then re-suspended in FBS-free DMEM/F12 medium containing 2.5% FBS. NF-κB luciferase plasmid construct was added to the cell suspension in a concentration of 50 µg/mL and incubated for 5 min at 25 °C. The cells were transfected by electroporation at 160 V and one 70 ms pulse using BTX disposable cuvettes (model 640 in a BTX Electro Square Porator T 820—BTX I, San Diego, CA, USA), Transfected cells were plate in 96-well plates at a density of 1.25 × 10^5cells per well in 200 µL of DMEM/F12 containing 10% FBS and antibiotics. After incubation for 24 h, the cells were treated with test samples for 30 min and then induced with PMA (70 ng/mL) for 8 h. The inhibition of NF-κB activity by EO, other extracts, and pure compounds was calculated in comparison to vehicle control. The IC50 values were obtain from the dose curves. Parthenolide was use as positive control.

[5] = tested on: transcription factor Sp-1; assay: Sp-1 inhibition; type: cell-based; details: NA = not active at tested concentration
[6] = tested on: skin malignant melanoma (SK-MEL); assay: Cytotoxic activity, Neutral Red assay, SK-MEL; type: cell-based; details: Homo sapiens; 48 h; NA = not active at 10 µg/mL for pure compound, at 100 µg/mL for extracts
Protocol: (§5) All cell lines used in this study were purchase from American Type Culture Collection (ATCC, Rockville, MD). The cytotoxic activity of the EO, extracts isolated from S. ceratophylla and pure compounds was determined in vitro against various human cancer cells: skin malignant melanoma (SK-MEL), human KB carcinoma (KB), breast ductal carcinoma (BT-549), ovarian carcinoma (SK-OV-3), and in two non-cancerous mammalian kidney cell lines (LLC-PK1 and VERO). Cells were seed at a density of 25,000 cells/well and incubated during 24 h. The tested EO, extracts and pure compounds were added separately at studied concentrations and cells were re-incubated during 48 h. After incubation time, the viability of cells was assessed by using Neutral Red Dye as described. DMSO was use as negative control and doxorubicin as positive control.

human KB carcinoma (KB) = assay: Cytotoxic activity, Neutral Red assay, KB; type: cell-based; details: 48 h, NA = not active at 10 µg/mL for pure compound, at 100 µg/mL for extracts
Protocol: as §5

[7] = tested on: breast ductal carcinoma (BT-549); assay: Cytotoxic activity, Neutral Red assay, BT-549; type: cell-based; details: Homo sapiens, 48 h, NA = not active at 10 µg/mL for pure compound, at 100 µg/mL for extracts
Protocol: as §5

[8] = tested on: ovarian carcinoma (SK-OV-3); assay: Cytotoxic activity, Neutral Red assay, SK-OV-3; type: cell-based; details: Homo sapiens, 48 h, NA = not active at 10 µg/mL for pure compound, at 100 µg/mL for extracts
Protocol: as §5

[9] = Cytotoxic activity, Neutral Red assay, LLC-PK1; type: cell-based; details: pig, LLC-PK1 kidney epithelial cells (non-cancerous), NA = not active at 10 µg/mL for pure compound, at 100 µg/mL for extracts
Protocol: as §5

[10] = Cytotoxic activity, Neutral Red assay, Vero; type: cell-based; details: African green monkey, Vero kidney fibroblast cells (non-cancerous), NA = not active at 10 µg/mL for pure compound, at 100 µg/mL for extracts
Protocol: as §5

[11] = tested on: NO production in mouse macrophage cells (RAW 264.7); assay: Nitric oxide (NO) measurement, LPS-stimulated macrophages, Griess reagent; type: cell-based; details: RAW264.7, RAW 264.7, LPS 5 µg/mL, 24 h, NA = not active at tested concentration, read-out: NO inhibition IC50
Protocol: The NO inhibition by EO, extracts of S. ceratophylla and pure compounds, was assess by the following methodology. Briefly, mouse macrophage cells (RAW 264.7) were culture in phenol red free RPMI medium with 10% bovine calf serum and 100 U/mL penicillin and 100 µg/mL streptomycin.
Cells were seed in 96-well plates (50,000 cells/well) and incubated during 24 h. The tested samples were dilute in serum free medium, incubated during 30 min, then lipopolysaccharide (LPS, 5 µg/mL) was added and cells were incubated for further 24 h. The level of nitrite in the cell supernatant was measure by using Griess reagent. The inhibition of nitrite production by the tested samples was calculate in comparison to the vehicle control. Parthenolide (Sigma-Aldrich) was use as positive control. IC50 values were obtain from dose curves.

[12] = tested on: several cancer cell lines; set-up: method as in earlier work; details: up to a concentration of 200 μg/mL; cited from earlier work
[13] = tested on: carrageenin-induced hind paw edema; set-up: method as in PMID 23334570; details: dose of 25 mg/kg, p = 0.03; cited from earlier work
[14] = tested on: L. amazonensis promastigotes; set-up: method as in PMID 12760864; details: cited from earlier work
[15] = tested on: differentiated THP1 cells; assay: THP1 toxicity assay (Alamar Blue); type: cell-based; details: Homo sapiens, THP-1; 48 h; tested concentrations (µg/mL) 20–0.8 extracts, 10–0.4 pure compounds and pentamidine, 2.0–0.08 amphotericin B; NA = not active
Protocol: Alamar Blue assay was perform as previously described by other authors. […] PMA was added to a final concentration of 25 ng/mL. A PMA treated culture was dispense in experimental culture plates and incubated overnight at 37 °C in a 5% CO2 incubator. The plates with differentiated THP1 cells were wash with serum-free medium. For THP1 toxicity assay, the diluted test samples (extracts or pure compounds) were add over differentiated THP1 cells and plates were incubated during 48 h at 37 °C in a 5% CO2 incubator. Cell growth was determined by the Alamar Blue assay.

[16] = tested on: T. brucei trypamastigotes; assay: Trypanosoma brucei trypamastigotes assay (Alamar Blue); type: cell-based; details: 72 h, 37 °C, tested concentrations (µg/mL) 20–0.8 extracts and DFMO, 10–0.4 pure compounds, NA = not active
Protocol: as §1, §2, §3, §4

[17] = compounds of Strychnos spinosa EO

SMILES: C=CC(C)(O)CCC=C(C)CCC=C(C)C (mixture of isomers) [nerolidol]
IC50 towards Trypanosoma [1, 17]: 1.7 µg/mL | selectivity index (SI) towards Trypanosoma [1, 17]: 35.7

IC50 [2]: 0.14 µg/mL (≈ 0.152 µM) | IC90 [2]: 0.324 µg/mL (≈ 0.351 µM) | IC50 [3]: 0.181 µg/mL (≈ 0.196 µM)
SMILES: C[C@@H]1[C@H](O)[C@@H](C)/C=C/C=C/C=C/C=C/C=C/C=C/C=C/[C@H](O[C@@H]2O[C@H](C)[C@@H](O)[C@H](N)[C@@H]2O)C[C@@H]2O[C@](O)(C[C@@H](O)C[C@@H](O)[C@H](O)CC[C@@H](O)C[C@@H](O)CC(=O)O[C@H]1C)C[C@H](O)[C@H]2C(=O)O [Amphotericin B]

IC50 (NF-κB): 45 µg/mL (≈ 220 µM) | IC50 [5]: 48 µg/mL (≈ 235 µM)
SMILES: C=C1CC/C=C(\C)CC[C@@H]2[C@@H]1CC2(C)C [Caryophyllene, (-)trans-Caryophyllene]
% decrease in oxidative stress ([4]; 250 µg/mL, pure compounds, NA = not active at tested concentration): 31% | % decrease in oxidative stress ([4]; 500 µg/mL, pure compounds, NA = not active at tested concentration): 35%

SMILES: COc1cccc2c1C(=O)c1c(O)c3c(c(O)c1C2=O)C[C@@](O)(C(=O)CO)C[C@@H]3O[C@H]1C[C@H](N)[C@H](O)[C@H](C)O1 [Doxorubicin]
IC50 [6]: 0.8 µg/mL (≈ 1.47 µM) | IC50 (human KB carcinoma (KB)): 1.4 µg/mL (≈ 2.58 µM) | IC50 [7]: 0.85 µg/mL (≈ 1.56 µM) | IC50 [8]: 2 µg/mL (≈ 3.68 µM) | IC50 at 48 h [9]: 1.2 µg/mL (≈ 2.21 µM) | IC50 at 48 h [10]: > 5 µg/mL

SMILES: C=CC(C)(O)CCC=C(C)C (stereo not drawn) [Linalool]
IC50 [11]: 18 µg/mL (≈ 117 µM) | cytotoxic activity against several cancer cell lines [12]: did not exhibit cytotoxic activity | inhibition of carrageenin-induced hind paw edema [13]: 55% | MIC, viability of L. amazonensis promastigotes [14]: 0.085 ng/mL | IC50 towards Trypanosoma [1, 17]: 2.5 µg/mL (≈ 16.2 µM)

IC50 (NF-κB): 0.33 µg/mL (≈ 1.33 µM)
SMILES: C=C1C(=O)O[C@H]2[C@H]1CC/C(C)=C/CC[C@@]1(C)O[C@@H]21 [Parthenolide]
IC50 [11]: 0.48 µg/mL (≈ 1.93 µM)

IC50 [2]: 1.02 µg/mL (≈ 3.01 µM) | IC90 [2]: 9.28 µg/mL (≈ 27.3 µM) | IC50 [3]: 3.8 µg/mL (≈ 11.2 µM)
SMILES: N=C(N)c1ccc(OCCCCCOc2ccc(C(=N)N)cc2)cc1 [Pentamidine]
IC90 [15]: 1.74 µg/mL (≈ 5.1 µM)

SMILES: O=c1c(O)c(-c2ccc(O)c(O)c2)oc2cc(O)cc(O)c12 [Quercetin]
% decrease in oxidative stress ([4]; 25 µM, positive control): 75%

IC50 (NF-κB): 100 µg/mL (≈ 648 µM) | IC50 ([16]; Trypanosoma brucei): 6.04 µg/mL (≈ 39.2 µM) | IC90 ([16]; Trypanosoma brucei): 8.22 µg/mL (≈ 53.3 µM)
SMILES: CC1=CC[C@@H](C(C)(C)O)CC1 [α-Terpineol]
activity against T. brucei brucei blood stream forms [1]: slightly active

T. brucei IC50 [16]: 4.792 µg/mL | T. brucei IC90 [16]: 7.760 µg/mL
SMILES: NCCC[C@](N)(C(=O)O)C(F)F [α-difluoromethylornithine]
